Data set [1] deals with L5178Y. The data set is described as follows: Antiproliferative activity against mouse L5178Y cells by MTT assay. The class given is functional, cell-based.
Data set [2] addresses T1, ATP-dependent translocase ABCB1 (Homo sapiens, UniProt P08183). Description: Inhibition of human ABCB1 in expressed in multidrug resistant mouse L5178Y cells assessed as fluorescence activity ratio at 2 uM by rhodamine 123 retention assay relative to parental L5178Y cells. The class given is cell-based.
The species named for a further data set is Homo sapiens. The data set is described as follows: Substrate activity at Pgp (unknown origin) assessed as increase in ATP basal consumption at 100 uM by Pgp-Glo luminescence assay relative to control.
Data set [3] deals with L5178Y. Description: Cytotoxicity against mouse L5178Y cells assessed as reduction in cell viability by MTT assay. In kind it is functional, cell-based.
Data set [4] deals with T1, ATP-dependent translocase ABCB1. The data set is described as follows: Inhibition of human ABCB1 in expressed in multidrug resistant mouse L5178Y cells assessed as fluorescence activity ratio at 20 uM by rhodamine 123 retention assay relative to parental L5178Y cells. The class given is cell-based.
Data set [5] has as its system L5178Y. Description: Antiproliferative activity against multidrug resistance mouse L5178Y cells expressing human MDR1 by MTT assay. The class given is functional, cell-based.
In data set [6] the test system is L5178Y. The data set is described as follows: Cytotoxicity against multidrug resistance mouse L5178Y cells expressing human MDR1 assessed as reduction in cell viability by MTT assay. In kind it is functional, cell-based.
Data set [7] has as its target T1, ATP-dependent translocase ABCB1. Description: Inhibition of human ABCB1 in expressed in multidrug resistant mouse L5178Y cells assessed as fluorescence activity ratio by rhodamine 123 retention assay relative to verapamil. In kind it is cell-based.

Each structure is given as a SMILES string.

T1 sequence (P08183 whole entry): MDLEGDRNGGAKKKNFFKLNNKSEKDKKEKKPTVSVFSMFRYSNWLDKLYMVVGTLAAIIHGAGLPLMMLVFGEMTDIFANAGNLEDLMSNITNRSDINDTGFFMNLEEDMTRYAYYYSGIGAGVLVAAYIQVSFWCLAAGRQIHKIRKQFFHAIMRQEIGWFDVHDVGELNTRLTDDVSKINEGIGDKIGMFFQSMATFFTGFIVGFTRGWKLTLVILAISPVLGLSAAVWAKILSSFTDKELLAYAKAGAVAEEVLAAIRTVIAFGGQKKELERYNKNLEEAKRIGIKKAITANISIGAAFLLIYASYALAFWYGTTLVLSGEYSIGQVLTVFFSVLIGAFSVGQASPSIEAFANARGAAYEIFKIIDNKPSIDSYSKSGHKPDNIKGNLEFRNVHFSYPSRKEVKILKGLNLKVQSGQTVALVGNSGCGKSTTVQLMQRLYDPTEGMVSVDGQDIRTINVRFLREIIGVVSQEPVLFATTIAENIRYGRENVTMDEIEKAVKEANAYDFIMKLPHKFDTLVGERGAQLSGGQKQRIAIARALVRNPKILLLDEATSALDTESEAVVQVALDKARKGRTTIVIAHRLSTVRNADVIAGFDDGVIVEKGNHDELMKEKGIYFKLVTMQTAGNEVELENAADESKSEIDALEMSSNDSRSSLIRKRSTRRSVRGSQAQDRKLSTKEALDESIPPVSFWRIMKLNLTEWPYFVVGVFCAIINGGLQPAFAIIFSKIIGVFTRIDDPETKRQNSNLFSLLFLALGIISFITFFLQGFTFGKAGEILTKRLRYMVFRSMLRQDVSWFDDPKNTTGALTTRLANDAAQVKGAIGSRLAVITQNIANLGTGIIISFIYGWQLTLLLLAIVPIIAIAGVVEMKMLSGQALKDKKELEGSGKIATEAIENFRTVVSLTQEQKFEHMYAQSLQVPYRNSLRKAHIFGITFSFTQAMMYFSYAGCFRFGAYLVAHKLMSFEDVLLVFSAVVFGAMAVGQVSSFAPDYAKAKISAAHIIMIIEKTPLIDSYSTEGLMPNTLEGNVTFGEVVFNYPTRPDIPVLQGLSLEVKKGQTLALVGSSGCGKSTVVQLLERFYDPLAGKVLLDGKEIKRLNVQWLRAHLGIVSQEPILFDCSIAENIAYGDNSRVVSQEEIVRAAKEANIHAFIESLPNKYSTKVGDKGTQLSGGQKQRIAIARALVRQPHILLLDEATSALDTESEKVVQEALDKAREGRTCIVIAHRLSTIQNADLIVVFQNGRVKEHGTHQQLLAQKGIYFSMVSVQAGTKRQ

Consider `CCC(C)(C)c1ccc(OCCCCN2CCN(c3cccnc3)CC2)cc1`, for which the IC50 was 3.23 µM with L5178Y [1], 9.23 µM in the data set with L5178Y [3], 3.68 µM in the data set on L5178Y [5] and 7.59 µM with L5178Y [6]. Further, the results for the Ratio in data set [2], in data set [4] and in data set [7] were 5.95, 19.26 and 1.6, respectively. Further, the Activity in the data set filed under Homo sapiens was above 100%.

In the case of `CC(C)(C)c1ccc(OCCCN2CCN(c3ncccn3)CC2)cc1`, the IC50 in the data set on L5178Y [1] is 25.6 µM; in the data set on L5178Y [3], 40.4 µM; in the data set on L5178Y [5], 20.7 µM; in the data set with L5178Y [6] it was 49.4 µM. The Ratio in data set [2] was 0.93; in data set [4], 1.02.

As for `CCC(C)(C)c1ccc(OCCCCN2CCN(c3ncccn3)CC2)cc1`, the IC50 worked out at 17.7 µM in the data set on L5178Y [1], 46.4 µM with L5178Y [3], 18.9 µM with L5178Y [5] and 32.1 µM in the data set with L5178Y [6]. Also, the Ratio in data set [2] amounted to 2.17; in data set [4] it was 32.32; in data set [7], 1.6.

Turning to `CC(=O)c1ccc(OCCCCN2CCN(c3cccnc3)CC2)cc1`, the IC50 in the data set on L5178Y [1] came to 24.2 µM; in the data set on L5178Y [3], 69 µM; with L5178Y [5], 29.8 µM; in the data set with L5178Y [6], 44 µM. Moreover, the Ratio in data set [2] was 0.84; in data set [4], 0.99.

As to `CC(=O)c1ccc(OCCCN2CCN(c3ccncc3)CC2)cc1`, the IC50 is 42.3 µM in the data set with L5178Y [1], above 100 µM in the data set with L5178Y [3] and 43.8 µM in the data set on L5178Y [5]. The results for the Ratio in data set [2] and in data set [4] were 1.29 and 1.61, respectively.

For `CSc1ccc2c(c1)N(CCC1CCCCN1C)c1ccccc1S2` (configuration not stated) [THIORIDAZINE], the IC50 in the data set with L5178Y [3] turned out to be 12.7 µM; in the data set on L5178Y [6], 7.43 µM.

On to `CC(C)(C)c1ccc(OCCCCN2CCN(c3cnccn3)CC2)cc1`, for which the IC50 with L5178Y [1] came to 9.86 µM; in the data set with L5178Y [3], 18.3 µM; in the data set with L5178Y [5], 9.68 µM; with L5178Y [6], 27.6 µM. In addition, the Ratio in data set [2] was 1.36; in data set [4], 17.85; in data set [7], 1.6.

Take `CCC(=O)c1ccc(OCCCN2CCN(c3cnccn3)CC2)cc1`: the IC50 in the data set with L5178Y [1] was 24.3 µM; in the data set on L5178Y [3], 47.5 µM; with L5178Y [5], 30 µM; with L5178Y [6], 60.3 µM. Besides, the Ratio in data set [2] came out at 0.83; in data set [4] it was 0.82.

In the case of `CC(C)(C)c1ccc(OCCCCN2CCN(c3ccccn3)CC2)cc1`, the IC50 was determined as 11.9 µM in the data set with L5178Y [1], 15.1 µM with L5178Y [3], 16.4 µM in the data set with L5178Y [5] and 16.7 µM in the data set on L5178Y [6]. In addition, the Ratio in data set [2] turned out to be 1.74; in data set [4], 38.41; in data set [7], 1.6. The Activity in the data set filed under Homo sapiens was above 100%.

`CC(=O)c1ccc(OCCCCN2CCN(c3ccccn3)CC2)cc1`: the 50% inhibitory concentration (IC50) with L5178Y [1] was 24.1 µM; with L5178Y [3], 63.7 µM; in the data set with L5178Y [5], 25.5 µM; in the data set with L5178Y [6] it was 46.2 µM. Besides, the Ratio in data set [2] was determined as 0.98; in data set [4], 8.71; in data set [7], 1.6.

In the case of `CC(=O)c1ccc(OCCCN2CCN(c3ncccn3)CC2)cc1`, the IC50 with L5178Y [1] was 53.2 µM; in the data set on L5178Y [3], above 100 µM; with L5178Y [5], 77.5 µM. The values for the Ratio in data set [2] and in data set [4] were 1.06 and 1.03, respectively.

Take `CC(=O)c1ccc(OCCCN2CCN(c3ccccn3)CC2)cc1`: the half-maximal inhibitory concentration (IC50) was determined as 27.1 µM in the data set with L5178Y [1], 32.8 µM in the data set with L5178Y [5] and 49.7 µM with L5178Y [6]. Besides, the Ratio amounted to 0.92 in data set [2] and 0.84 in data set [4].

As to `CC(C)(C)c1ccc(OCCCCN2CCN(c3cccnc3)CC2)cc1`, the IC50 with L5178Y [1] came out at 5.48 µM; with L5178Y [3] it was 11.7 µM; in the data set with L5178Y [5], 5.99 µM; in the data set on L5178Y [6], 10.5 µM. In addition, the Ratio was determined as 2.81 in data set [2], 25.33 in data set [4] and 1.6 in data set [7]. Moreover, the Activity in the data set filed under Homo sapiens is above 100%.

For `CC(=O)c1ccc(OCCCCN2CCN(c3ncccn3)CC2)cc1`, the 50% inhibitory concentration (IC50) is 31.6 µM with L5178Y [1], above 100 µM in the data set on L5178Y [3], 38.9 µM in the data set on L5178Y [5] and 63.9 µM in the data set with L5178Y [6]. In addition, the results for the Ratio in data set [2] and in data set [4] were 0.86 and 1.28, respectively.

For `CCC(C)(C)c1ccc(OCCCCN2CCN(c3cnccn3)CC2)cc1`, the IC50 with L5178Y [1] stood at 9.56 µM; in the data set on L5178Y [3], 12.6 µM; in the data set with L5178Y [5], 9.49 µM; in the data set on L5178Y [6], 12.8 µM. Also, the figures for the Ratio in data set [2], in data set [4] and in data set [7] were 1.85, 73.64 and 1.6, respectively. The Activity in the data set listed under Homo sapiens is above 100%.

`CC(C)(C)c1ccc(OCCCCN2CCN(c3ncccn3)CC2)cc1`: the IC50 with L5178Y [1] turned out to be 11.3 µM; in the data set with L5178Y [3] it was 20.8 µM; with L5178Y [5] it was 9.88 µM; in the data set on L5178Y [6], 17.6 µM. The Ratio is recorded as 2.7 in data set [2], 34.05 in data set [4] and 1.6 in data set [7].

In the case of `CCC(=O)c1ccc(OCCCN2CCN(c3ncccn3)CC2)cc1`, the IC50 in the data set on L5178Y [1] is 36.9 µM; in the data set with L5178Y [3], above 100 µM; with L5178Y [5], 41.3 µM; in the data set on L5178Y [6], 54.6 µM. Further, the Ratio came to 0.92 in data set [2] and 1.02 in data set [4].

Source of the values: ChEMBL document CHEMBL4699470, “N-Substituted piperazine derivatives as potential multitarget agents acting on histamine H receptor and cancer resistance proteins” (Bioorg Med Chem Lett, 2020).
